pIC50: −log10 of the molar value.
Assays:
[1] = test system: breast cancer cell line (MDA-MB-231); test: Cancer proliferation inhibitory activity (SRB, GI50), MDA-MB-231; assay type: cell-based; conditions: Homo sapiens, 48 hours
Procedure, shortened: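 GI50 values come from an SRB protein-staining assay after 48 h of treatment with compound between 0.1 μM and 10 μM.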

HDAC 6 = molecular target: T1, HDAC 6 (Homo sapiens, UniProt Q9UBN7); test: HDAC enzyme fluorescence assay, HDAC 6; assay type: biochemical; conditions: recombinant HDAC enzyme, Boc-Lys(acetyl)-AMC
T1 sequence (Q9UBN7 1-1215): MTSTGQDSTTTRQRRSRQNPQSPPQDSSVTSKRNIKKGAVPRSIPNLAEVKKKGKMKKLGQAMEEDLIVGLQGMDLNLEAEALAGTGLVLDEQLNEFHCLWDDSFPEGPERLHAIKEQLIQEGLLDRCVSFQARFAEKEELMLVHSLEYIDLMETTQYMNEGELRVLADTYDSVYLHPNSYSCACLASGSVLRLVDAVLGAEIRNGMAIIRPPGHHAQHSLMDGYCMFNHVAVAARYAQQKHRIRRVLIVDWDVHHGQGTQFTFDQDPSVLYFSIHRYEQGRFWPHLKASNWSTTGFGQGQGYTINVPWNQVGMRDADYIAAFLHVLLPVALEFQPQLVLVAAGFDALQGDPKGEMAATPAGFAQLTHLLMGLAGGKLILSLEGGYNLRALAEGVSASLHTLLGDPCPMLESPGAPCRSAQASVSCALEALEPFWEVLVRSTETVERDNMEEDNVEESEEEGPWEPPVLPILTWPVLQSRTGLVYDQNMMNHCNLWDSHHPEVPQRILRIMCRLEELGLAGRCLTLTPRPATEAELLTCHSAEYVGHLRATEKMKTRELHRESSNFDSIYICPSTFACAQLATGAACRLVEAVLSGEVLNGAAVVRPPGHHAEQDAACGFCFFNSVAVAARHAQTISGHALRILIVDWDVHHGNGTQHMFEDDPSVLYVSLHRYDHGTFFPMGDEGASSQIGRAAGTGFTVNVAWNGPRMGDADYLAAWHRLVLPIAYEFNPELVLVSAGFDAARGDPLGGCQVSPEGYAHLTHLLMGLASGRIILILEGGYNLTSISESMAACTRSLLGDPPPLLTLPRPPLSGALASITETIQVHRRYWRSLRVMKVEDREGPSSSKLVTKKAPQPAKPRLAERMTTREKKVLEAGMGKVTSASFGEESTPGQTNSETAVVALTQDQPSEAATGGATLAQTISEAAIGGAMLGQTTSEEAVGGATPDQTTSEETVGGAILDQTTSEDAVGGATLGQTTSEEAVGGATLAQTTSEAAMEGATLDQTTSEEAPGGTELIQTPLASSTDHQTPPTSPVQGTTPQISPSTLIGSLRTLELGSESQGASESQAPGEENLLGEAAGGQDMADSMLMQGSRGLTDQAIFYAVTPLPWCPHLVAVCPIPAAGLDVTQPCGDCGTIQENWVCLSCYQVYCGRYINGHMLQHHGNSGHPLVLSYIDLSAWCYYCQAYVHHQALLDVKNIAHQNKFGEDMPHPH
Method: Particularly, HDAC enzyme analysis was performed based on a uniform fluorescence emission assay. First, the compounds of examples of the present invention or comparative example 1 were diluted at different concentrations, which were treated to the analysis buffer containing 25 mM HEPES (pH 8.0), 137 mM NaCl, 1 mM MgCl2 and 2.7 mM KCL, followed by culture of the recombinant HDAC enzyme. 10 minutes later, Boc-Lys(acetyl)-AMC, the fluorescence inducing substrate, was added thereto, followed by further culture at 37° C. At this time, the concentration of the fluorescence inducing substrate and the culture time were adjusted according to the isotypes of the HDAC enzyme. The reaction was terminated by treating trypsin at room temperature for 20 minutes. The fluorescence intensity was measured using a fluorescence analyzer at an excitation wavelength of 380 nm and an emission wavelength of 460 nm, respectively. The inhibition rate was calculated from the measured fluorescence intensity of each well with comparing to that of the control well. IC50 of the compound was calculated by analyzing the dose-reaction inhibition curve.

Compound | GI50 [1] [nM] | pIC50 (HDAC 6)
COc1ccc([S+]([O-])C/C=C\SSCc2ccccc2)cc1 (stereo not shown) [Example 32, (Z)-1-benzyl-2-(3-(4-methoxyphenylsulfinyl)prop-1-enyl)disulfane] | 5880 | 6.26
CCCSS/C=C\C[S+]([O-])c1cccc(OC)c1 (stereo not shown) [Example 18, (Z)-1-(3-(3-methoxyphenylsulfinyl)prop-1-enyl)-2-propyldisulfane] | 2430 | 5.96

Reference: patent publication US11230525B2, “Organic sulfur compound, method for preparing same, and pharmaceutical composition for preventing or treating cancer or an inflammatory disease, containing same as active ingredient” (SOOKMYUNG WOMENS UNIVERSITY INDUSTRY-ACADEMIC COOPERATION …, priority 2016, dated 2022)
